# Tested on: green foxtail
# Test: Test Example 5: herbicidal effect by foliage application, plastic box (Table 20, symbol G)
# Assay type: in vivo, green foxtail (Setaria viridis)
# Details: foliage application, 320 g/ha, three weeks after application
# Outline: (§1)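 Plants sown in sterilized diluvial soil and grown 14 days in a greenhouse at 25° C to 30° C, then sprayed on the foliage with the compound's emulsion diluted in water to a predetermined herbicide amount. Injury to weeds and crops scored three weeks after application on a visual rating scale.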
row,Compound,herbicidal effect on green foxtail (G)
1,CCOc1cc(F)ccc1-c1sc2cc(C)c(C)cc2c1-c1c(O)c(C)nn(C)c1=O [5-103],5 (Herbicidal rate of 90% or more (almost completely withered))
2,CCOc1ccc2c(-c3c(O)c(C)nn(C)c3=O)c(-c3ccccc3OC)sc2c1Cl [7-003],4 (Herbicidal rate of 70% or more and less than 90%)

# Tested on: late watergrass
# Test: Test Example 2: herbicidal activity, application during weed generation under submerged conditions (Table 17, symbol A)
# Assay type: in vivo, late watergrass (Echinochloa oryzicola)
# Details: AAH 320 g/ha; application during weed generation, submerged conditions
# Outline: (§2)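 Herbicide emulsion, diluted with water to the chosen amount, is applied onto 4 cm floodwater over alluvial soil where the weeds were co-sown and raised at 25–30° C. Application timing: 1–2 leaves. Assessment: three weeks afterwards.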
row,Compound,"herbicidal effect rating, A: late watergrass"
1,CCOc1cc(F)ccc1-c1sc2cc(C)c(C)cc2c1-c1c(O)c(C)nn(C)c1=O [5-103],2 (Herbicidal rate of 20% or more and less than 40%)
2,CCOc1ccc2c(-c3c(O)c(C)nn(C)c3=O)c(-c3ccccc3OC)sc2c1Cl [7-003],0 (Herbicidal rate of 5% or less (almost no effect))

# Tested on: barnyard grass
# Test: Test Example 3: herbicidal effect by foliage application, Wagner pot (Table 18, symbol H)
# Assay type: in vivo, barnyard grass (Echinochloa crus-galli)
# Details: 320 g/ha
# Outline: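 Plants were sown in alluvial soil held under 0.1–0.5 cm standing water and grown 14 days in a greenhouse at 25–30 °C. An emulsifiable formulation, water-diluted to the set dose, was then sprayed onto the foliage, and effects were scored three weeks later using previously defined criteria.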
row,Compound,herbicidal effect on barnyard grass (H)
1,CCOc1cc(F)ccc1-c1sc2cc(C)c(C)cc2c1-c1c(O)c(C)nn(C)c1=O [5-103],5 (Herbicidal rate of 90% or more (almost completely withered))

# Same assay, conditions: amount of applied herbicide 320 g/ha
row,Compound,"Herbicidal effect on H (barnyard grass), foliage application"
1,CCOc1ccc2c(-c3c(O)c(C)nn(C)c3=O)c(-c3ccccc3OC)sc2c1Cl [7-003],4 (Herbicidal rate of 70% or more and less than 90%)

# Tested on: windgrass
# Test: Test Example 4: herbicidal effect by soil treatment (Table 19, symbol L)
# Assay type: in vivo, windgrass (Apera spica-venti)
# Details: amount of applied herbicide 320 g/ha
# Outline: (§3)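 Three weeks of greenhouse growth at 25° C. to 30° C. followed a uniform surface spray of water-diluted emulsion at a predetermined herbicide amount. Seeds had been sown beforehand under about 1.5 cm of sterilized diluvial soil. Grading followed criteria set out in an earlier test.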
row,Compound,"L: windgrass, herbicidal effect grade"
1,CCOc1cc(F)ccc1-c1sc2cc(C)c(C)cc2c1-c1c(O)c(C)nn(C)c1=O [5-103],3 (Herbicidal rate of 40% or more and less than 70%)
2,CCOc1ccc2c(-c3c(O)c(C)nn(C)c3=O)c(-c3ccccc3OC)sc2c1Cl [7-003],0 (Herbicidal rate of 5% or less (almost no effect))

# Tested on: Japanese bulrush
# Test: Test Example 1: herbicidal activity, application before weed generation under submerged conditions (Table 16, symbol B)
# Assay type: in vivo, Japanese bulrush (Schoenoplectus juncoides)
# Details: amount of applied herbicide 320 g/ha
# Outline: (§4)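 Alluvial soil was flooded to 4 cm depth, weed seeds were sown mixed and 2.5-leaf rice seedlings were transplanted. On sowing day, the compound's emulsion, diluted in water to a set dose, was applied to the water surface. Plants grew at 25–30 °C and were scored 0–5 after three weeks.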
row,Compound,"Herbicidal effect, B: Japanese bulrush"
1,CCOc1cc(F)ccc1-c1sc2cc(C)c(C)cc2c1-c1c(O)c(C)nn(C)c1=O [5-103],4 (Herbicidal rate of 70% or more and less than 90%)
2,CCOc1ccc2c(-c3c(O)c(C)nn(C)c3=O)c(-c3ccccc3OC)sc2c1Cl [7-003],3 (Herbicidal rate of 40% or more and less than 70%)

# Tested on: chickweed
# Test: Test Example 4: herbicidal effect by soil treatment (Table 19, symbol P)
# Assay type: in vivo, common chickweed (Stellaria media)
# Details: amount of applied herbicide 320 g/ha
# Outline: as §3
row,Compound,"P: chickweed, herbicidal effect grade"
1,CCOc1cc(F)ccc1-c1sc2cc(C)c(C)cc2c1-c1c(O)c(C)nn(C)c1=O [5-103],3 (Herbicidal rate of 40% or more and less than 70%)
2,CCOc1ccc2c(-c3c(O)c(C)nn(C)c3=O)c(-c3ccccc3OC)sc2c1Cl [7-003],4 (Herbicidal rate of 70% or more and less than 90%)

# Tested on: late watergrass
# Test: Test Example 1: herbicidal activity, application before weed generation under submerged conditions (Table 16, symbol A)
# Assay type: in vivo, late watergrass (Echinochloa oryzicola)
# Details: amount of applied herbicide 320 g/ha
# Outline: as §4
row,Compound,"Herbicidal effect, A: late watergrass"
1,CCOc1cc(F)ccc1-c1sc2cc(C)c(C)cc2c1-c1c(O)c(C)nn(C)c1=O [5-103],5 (Herbicidal rate of 90% or more (almost completely withered))
2,CCOc1ccc2c(-c3c(O)c(C)nn(C)c3=O)c(-c3ccccc3OC)sc2c1Cl [7-003],2 (Herbicidal rate of 20% or more and less than 40%)

# Tested on: southern crabgrass
# Test: Test Example 5: herbicidal effect by foliage application, plastic box (Table 20, symbol F)
# Assay type: in vivo, southern crabgrass (Digitaria ciliaris)
# Details: foliage application, 320 g/ha, three weeks after application
# Outline: as §1
row,Compound,herbicidal effect on southern crabgrass (F)
1,CCOc1cc(F)ccc1-c1sc2cc(C)c(C)cc2c1-c1c(O)c(C)nn(C)c1=O [5-103],5 (Herbicidal rate of 90% or more (almost completely withered))
2,CCOc1ccc2c(-c3c(O)c(C)nn(C)c3=O)c(-c3ccccc3OC)sc2c1Cl [7-003],1 (Herbicidal rate of 5% or more and less than 20%)

# Tested on: oval-leafed pondweed
# Test: Test Example 1: herbicidal activity, application before weed generation under submerged conditions (Table 16, symbol C)
# Assay type: in vivo, oval-leafed pondweed (Monochoria vaginalis)
# Details: amount of applied herbicide 320 g/ha
# Outline: as §4
row,Compound,"Herbicidal effect, C: oval-leafed pondweed"
1,CCOc1cc(F)ccc1-c1sc2cc(C)c(C)cc2c1-c1c(O)c(C)nn(C)c1=O [5-103],4 (Herbicidal rate of 70% or more and less than 90%)
2,CCOc1ccc2c(-c3c(O)c(C)nn(C)c3=O)c(-c3ccccc3OC)sc2c1Cl [7-003],0 (Herbicidal rate of 5% or less (almost no effect))

# Tested on: oval-leafed pondweed
# Test: Test Example 2: herbicidal activity, application during weed generation under submerged conditions (Table 17, symbol C)
# Assay type: in vivo, oval-leafed pondweed (Monochoria vaginalis)
# Details: AAH 320 g/ha; application during weed generation, submerged conditions
# Outline: as §2
row,Compound,"herbicidal effect rating, C: oval-leafed pondweed"
1,CCOc1cc(F)ccc1-c1sc2cc(C)c(C)cc2c1-c1c(O)c(C)nn(C)c1=O [5-103],3 (Herbicidal rate of 40% or more and less than 70%)
2,CCOc1ccc2c(-c3c(O)c(C)nn(C)c3=O)c(-c3ccccc3OC)sc2c1Cl [7-003],0 (Herbicidal rate of 5% or less (almost no effect))

# Tested on: persian speedwell
# Test: Test Example 4: herbicidal effect by soil treatment (Table 19, symbol R)
# Assay type: in vivo, Persian speedwell (Veronica persica)
# Details: amount of applied herbicide 320 g/ha
# Outline: as §3
row,Compound,"R: persian speedwell, herbicidal effect grade"
1,CCOc1cc(F)ccc1-c1sc2cc(C)c(C)cc2c1-c1c(O)c(C)nn(C)c1=O [5-103],4 (Herbicidal rate of 70% or more and less than 90%)
2,CCOc1ccc2c(-c3c(O)c(C)nn(C)c3=O)c(-c3ccccc3OC)sc2c1Cl [7-003],5 (Herbicidal rate of 90% or more (almost completely withered))

# Tested on: redroot pigweed
# Test: Test Example 4: herbicidal effect by soil treatment (Table 19, symbol N)
# Assay type: in vivo, redroot pigweed (Amaranthus retroflexus)
# Details: amount of applied herbicide 320 g/ha
# Outline: as §3
row,Compound,"N: redroot pigweed, herbicidal effect grade"
1,CCOc1cc(F)ccc1-c1sc2cc(C)c(C)cc2c1-c1c(O)c(C)nn(C)c1=O [5-103],2 (Herbicidal rate of 20% or more and less than 40%)
2,CCOc1ccc2c(-c3c(O)c(C)nn(C)c3=O)c(-c3ccccc3OC)sc2c1Cl [7-003],5 (Herbicidal rate of 90% or more (almost completely withered))

# Tested on: southern crabgrass
# Test: Test Example 4: herbicidal effect by soil treatment (Table 19, symbol F)
# Assay type: in vivo, southern crabgrass (Digitaria ciliaris)
# Details: amount of applied herbicide 320 g/ha
# Outline: as §3
row,Compound,"F: southern crabgrass, herbicidal effect grade"
1,CCOc1cc(F)ccc1-c1sc2cc(C)c(C)cc2c1-c1c(O)c(C)nn(C)c1=O [5-103],4 (Herbicidal rate of 70% or more and less than 90%)
2,CCOc1ccc2c(-c3c(O)c(C)nn(C)c3=O)c(-c3ccccc3OC)sc2c1Cl [7-003],0 (Herbicidal rate of 5% or less (almost no effect))

# Tested on: wild oat
# Test: Test Example 4: herbicidal effect by soil treatment (Table 19, symbol I)
# Assay type: in vivo, wild oat (Avena fatua)
# Details: amount of applied herbicide 320 g/ha
# Outline: as §3
row,Compound,"I: wild oat, herbicidal effect grade"
1,CCOc1cc(F)ccc1-c1sc2cc(C)c(C)cc2c1-c1c(O)c(C)nn(C)c1=O [5-103],0 (Herbicidal rate of 5% or less (almost no effect))
2,CCOc1ccc2c(-c3c(O)c(C)nn(C)c3=O)c(-c3ccccc3OC)sc2c1Cl [7-003],0 (Herbicidal rate of 5% or less (almost no effect))

# Tested on: velvetleaf
# Test: Test Example 4: herbicidal effect by soil treatment (Table 19, symbol M)
# Assay type: in vivo, velvetleaf (Abutilon theophrasti)
# Details: amount of applied herbicide 320 g/ha
# Outline: as §3
row,Compound,"M: velvetleaf, herbicidal effect grade"
1,CCOc1cc(F)ccc1-c1sc2cc(C)c(C)cc2c1-c1c(O)c(C)nn(C)c1=O [5-103],1 (Herbicidal rate of 5% or more and less than 20%)
2,CCOc1ccc2c(-c3c(O)c(C)nn(C)c3=O)c(-c3ccccc3OC)sc2c1Cl [7-003],3 (Herbicidal rate of 40% or more and less than 70%)
